Measured values published in patent US10004701B2, “Methods and compositions for treating infection” (UNIVERSITY OF ROCHESTER, priority 2012, dated 2018).
Converted amounts (≈) assume the structure as drawn. Counter-ions that a name gives are not always drawn. Like-named read-outs stand apart in the source and are kept apart here.

Legend:
S. aureus = assay: Minimum Inhibitory Concentration (MIC) testing, terfenadine study; type: cell-based; settings: Staphylococcus aureus, 16 h
[1] = tested on: A. baumannii strain 98-37-09; assay: AK assay 384-well format, Prestwick library screening; type: cell-based, Acinetobacter baumannii; settings: 50 μM final drug concentration; for fold induction at 50 µM: Acinetobacter baumannii, 983709, 3 h
E. coli = assay: as above; type: cell-based, Escherichia coli; settings: 50 μM final drug concentration; for fold induction at 50 µM: Escherichia coli, 3 h
[2] = tested on: S. aureus strain USA300-0114; assay: as above; type: cell-based, Staphylococcus aureus; settings: 50 μM final drug concentration; for fold induction at 50 µM: Staphylococcus aureus, USA300, 3 h
K. pneumoniae = assay: as above; type: cell-based, Klebsiella pneumoniae; settings: 50 μM final drug concentration; for fold induction at 50 µM: Klebsiella pneumoniae, 3 h
P. aeruginosa = assay: as above; type: cell-based, Pseudomonas aeruginosa; settings: 50 μM final drug concentration; for fold induction at 50 µM: Pseudomonas aeruginosa, 3 h
E. cloacae = assay: as above; type: cell-based, Enterobacter cloacae; settings: 50 μM final drug concentration; for fold induction at 50 µM: Enterobacter cloacae, 3 h
E. faecium = assay: as above; type: cell-based, Enterococcus faecium; settings: 50 μM final drug concentration; for fold induction at 50 µM: Enterococcus faecium, 3 h
[3] = planktonic A. baumannii, cutoff for positive-scoring molecules 3-fold increase, read-out: AK-based Prestwick Library Screening Results, A. baumannii (increase in extracellular AK activity)
[4] = planktonic E. coli, cutoff for positive-scoring molecules 3-fold increase, read-out: AK-based Prestwick Library Screening Results, E. coli (increase in extracellular AK activity)
[5] = planktonic S. aureus, cutoff for positive-scoring molecules 3-fold increase, read-out: AK-based Prestwick Library Screening Results, S. aureus (increase in extracellular AK activity)
[6] = planktonic K. pneumoniae, cutoff for positive-scoring molecules 3-fold increase, read-out: AK-based Prestwick Library Screening Results, K. pneumoniae (increase in extracellular AK activity)
[7] = planktonic P. aeruginosa, cutoff for positive-scoring molecules 3-fold increase, read-out: AK-based Prestwick Library Screening Results, P. aeruginosa (increase in extracellular AK activity)
[8] = planktonic E. cloacae, cutoff for positive-scoring molecules 3-fold increase, read-out: AK-based Prestwick Library Screening Results, E. cloacae (increase in extracellular AK activity)
[9] = planktonic E. faecium, cutoff for positive-scoring molecules 3-fold increase, read-out: AK-based Prestwick Library Screening Results, E. faecium (increase in extracellular AK activity)
[10] = 384-well format, cutoff for positive-scoring molecules 3-fold increase, read-out: AK-based Prestwick Library Screening Results, E. coli (increase in extracellular AK activity)

`CC(C)(C)c1ccc(C(=O)CN2CCC(C(O)(c3ccccc3)c3ccccc3)CC2)cc1` [Compound 20, 1-(4-(tert-butyl)phenyl)-2-(4-(hydroxydiphenylmethyl)piperidin-1-yl)ethanone] was tested. Which MIC (S. aureus) did it give?
Its MIC is greater than 256 µg/mL.

Which MIC (S. aureus) does the source give for `CC(C)(C)c1ccc(C(O)CCCN2CCC(C(O)c3ccccc3)CC2)cc1` (mixture of isomers) [Compound 31, 1-(4-(tert-butyl)phenyl)-4-(4-(hydroxy(phenyl)methyl)piperidin-1-yl)butan-1-ol] here?
The MIC was 128 µg/mL.

`CC(C)(C)c1ccc(C(=O)CCCN2CCC(C(O)(c3ccccc3)c3ccccc3)CC2)cc1` [Compound 11, 1-(4-(tert-butyl)phenyl)-4-(4-(hydroxydiphenylmethyl)piperidin-1-yl)butan-1-one] was tested. Which MIC (S. aureus) did it give?
Its MIC is 8 µg/mL (≈ 17 µM).

With `CC(C)(C)c1ccc(C(N)CCCN2CCC(C(O)(c3ccccc3)c3ccccc3)CC2)cc1` (stereo not drawn) [Compound 24, (1-(4-amino-4-(4-(tert-butyl)phenyl)butyl)piperidin-4-yl)diphenylmethanol] as the compound, how does the MIC (S. aureus) read?
Its MIC is 16 µg/mL (≈ 34 µM).

How did the fold induction at 50 µM [1, 3] turn out when `COC(=O)[C@@H]1[C@H]2C[C@H]3c4[nH]c5ccccc5c4CCN3C[C@@H]2CC[C@@H]1O` [Yohimbine hydrochloride] was run?
Its fold induction at 50 µM is 0.8.

And the fold induction at 50 µM (E. coli; [4])?
Its fold induction at 50 µM is 0.8.

And the fold induction at 50 µM [2, 5]?
The fold induction at 50 µM was 0.6.

What about the fold induction at 50 µM (K. pneumoniae; [6]) of the same compound?
The fold induction at 50 µM was 0.8.

What about the fold induction at 50 µM (P. aeruginosa; [7]) of the same compound?
Its fold induction at 50 µM is 0.9.

What about the fold induction at 50 µM (E. cloacae; [8]) of the same compound?
The fold induction at 50 µM was 1.

What about the fold induction at 50 µM (E. faecium; [9]) of the same compound?
The fold induction at 50 µM was 0.9.

What does the source list for `OC(CCN1CCCCC1)(c1ccccc1)C1CC2C=CC1C2` (stereo not drawn) [Biperiden hydrochloride]?
fold induction at 50 µM [1, 3]: 0.8; fold induction at 50 µM (E. coli; [4]): 1; fold induction at 50 µM [2, 5]: 0.6; fold induction at 50 µM (K. pneumoniae; [6]): 0.8; fold induction at 50 µM (P. aeruginosa; [7]): 0.8; fold induction at 50 µM (E. cloacae; [8]): 0.9; fold induction at 50 µM (E. faecium; [9]): 0.9

Which fold induction at 50 µM ([1]; planktonic, […], read-out: AK-based Prestwick Library Screening Results, A. baumannii (fold increase in extracellular AK activity)) does the source give for `CC1=CC(=O)C2=C(C)C[C@H](O)[C@@H]3[C@H](OC(=O)[C@H]3C)[C@H]12` [Austricine hydrate] here?
Its fold induction at 50 µM is 1.

And the fold induction at 50 µM (E. coli; planktonic, […], read-out: AK-based Prestwick Library Screening Results, E. coli (fold increase in extracellular AK activity))?
The fold induction at 50 µM was 1.2.

What about the fold induction at 50 µM ([2]; planktonic, […], read-out: AK-based Prestwick Library Screening Results, S. aureus (fold increase in extracellular AK activity)) of the same compound?
Its fold induction at 50 µM is 1.2.

And the fold induction at 50 µM (K. pneumoniae; planktonic, […], read-out: AK-based Prestwick Library Screening Results, K. pneumoniae (fold increase in extracellular AK activity))?
Its fold induction at 50 µM is 1.

And the fold induction at 50 µM (P. aeruginosa; planktonic, […], read-out: AK-based Prestwick Library Screening Results, P. aeruginosa (fold increase in extracellular AK activity))?
The fold induction at 50 µM was 1.1.

And the fold induction at 50 µM (E. cloacae; planktonic, […], read-out: AK-based Prestwick Library Screening Results, E. cloacae (fold increase in extracellular AK activity))?
The fold induction at 50 µM was 1.3.

What about the fold induction at 50 µM (E. faecium; planktonic, […], read-out: AK-based Prestwick Library Screening Results, E. faecium (fold increase in extracellular AK activity)) of the same compound?
The fold induction at 50 µM was 1.1.

What does the source list for `CC/C(=C(/CC)c1ccc(O)cc1)c1ccc(O)cc1` [Diethylstilbestrol]?
fold induction at 50 µM ([1]; planktonic, cutoff for positive-scoring molecules 3-fold increase, read-out: AK-based Prestwick Library Screening Results, A. baumannii (fold increase in extracellular AK activity)): 1.8; fold induction at 50 µM (E. coli; planktonic, cutoff for positive-scoring molecules 3-fold increase, read-out: AK-based Prestwick Library Screening Results, E. coli (fold increase in extracellular AK activity)): 0.9; fold induction at 50 µM ([2]; planktonic, cutoff for positive-scoring molecules 3-fold increase, read-out: AK-based Prestwick Library Screening Results, S. aureus (fold increase in extracellular AK activity)): 0.6; fold induction at 50 µM (K. pneumoniae; planktonic, cutoff for positive-scoring molecules 3-fold increase, read-out: AK-based Prestwick Library Screening Results, K. pneumoniae (fold increase in extracellular AK activity)): 0.7; fold induction at 50 µM (P. aeruginosa; planktonic, cutoff for positive-scoring molecules 3-fold increase, read-out: AK-based Prestwick Library Screening Results, P. aeruginosa (fold increase in extracellular AK activity)): 0.8; fold induction at 50 µM (E. cloacae; planktonic, cutoff for positive-scoring molecules 3-fold increase, read-out: AK-based Prestwick Library Screening Results, E. cloacae (fold increase in extracellular AK activity)): 1.4; fold induction at 50 µM (E. faecium; planktonic, cutoff for positive-scoring molecules 3-fold increase, read-out: AK-based Prestwick Library Screening Results, E. faecium (fold increase in extracellular AK activity)): 1.1

`Cc1cc(=O)n(-c2ccccc2)n1C` [Antipyrine] was tested. Which fold induction at 50 µM ([1]; 384-well format, […], read-out: AK-based Prestwick Library Screening Results, A. baumannii (increase in extracellular AK activity)) did it give?
The fold induction at 50 µM was 1.

What about the fold induction at 50 µM (E. coli; [10]) of the same compound?
Its fold induction at 50 µM is 0.9.

And the fold induction at 50 µM ([2]; 384-well format, […], read-out: AK-based Prestwick Library Screening Results, S. aureus (increase in extracellular AK activity))?
The fold induction at 50 µM was 0.7.

What about the fold induction at 50 µM (K. pneumoniae; 384-well format, […], read-out: AK-based Prestwick Library Screening Results, K. pneumoniae (increase in extracellular AK activity)) of the same compound?
Its fold induction at 50 µM is 0.7.

What about the fold induction at 50 µM (P. aeruginosa; 384-well format, […], read-out: AK-based Prestwick Library Screening Results, P. aeruginosa (increase in extracellular AK activity)) of the same compound?
The fold induction at 50 µM was 0.8.

And the fold induction at 50 µM (E. cloacae; 384-well format, […], read-out: AK-based Prestwick Library Screening Results, E. cloacae (increase in extracellular AK activity))?
Its fold induction at 50 µM is 1.

What about the fold induction at 50 µM (E. faecium; 384-well format, […], read-out: AK-based Prestwick Library Screening Results, E. faecium (increase in extracellular AK activity)) of the same compound?
Its fold induction at 50 µM is 1.

Which fold induction at 50 µM ([1]; planktonic A. baumannii, 384-well, cutoff for positive-scoring molecules 3-fold increase, read-out: AK-based Prestwick Library Screening Results: A. baumannii (increase in extracellular AK activity)) does the source give for `C[C@]12CCC(=O)C=C1C=C[C@@H]1[C@@H]2CC[C@@]2(C)[C@H]1CC[C@@]2(O)CCC(=O)O` [Canrenoic acid potassium salt] here?
Its fold induction at 50 µM is 1.5.

And the fold induction at 50 µM (E. coli; planktonic E. coli, 384-well, cutoff for positive-scoring molecules 3-fold increase, read-out: AK-based Prestwick Library Screening Results: E. coli (increase in extracellular AK activity))?
The fold induction at 50 µM was 1.4.

And the fold induction at 50 µM ([2]; planktonic S. aureus, 384-well, cutoff for positive-scoring molecules 3-fold increase, read-out: AK-based Prestwick Library Screening Results: S. aureus (increase in extracellular AK activity))?
Its fold induction at 50 µM is 1.1.

And the fold induction at 50 µM (K. pneumoniae; planktonic K. pneumoniae, 384-well, cutoff for positive-scoring molecules 3-fold increase, read-out: AK-based Prestwick Library Screening Results: K. pneumoniae (increase in extracellular AK activity))?
The fold induction at 50 µM was 0.9.

And the fold induction at 50 µM (P. aeruginosa; planktonic P. aeruginosa, 384-well, cutoff for positive-scoring molecules 3-fold increase, read-out: AK-based Prestwick Library Screening Results: P. aeruginosa (increase in extracellular AK activity))?
The fold induction at 50 µM was 1.3.

What about the fold induction at 50 µM (E. cloacae; planktonic E. cloacae, 384-well, cutoff for positive-scoring molecules 3-fold increase, read-out: AK-based Prestwick Library Screening Results: E. cloacae (increase in extracellular AK activity)) of the same compound?
Its fold induction at 50 µM is 1.2.

And the fold induction at 50 µM (E. faecium; planktonic E. faecium, 384-well, cutoff for positive-scoring molecules 3-fold increase, read-out: AK-based Prestwick Library Screening Results: E. faecium (increase in extracellular AK activity))?
The fold induction at 50 µM was 1.

How did the “AK-based Prestwick Library Screening Results, A. baumannii (fold increase in extracellular AK activity)” value ([1]; […]) turn out when `CN1C2CC(=O)CC1C(O)C2` (stereo not drawn) [Compound 6-Hydroxytropinone] was run?
Its value is 0.5.

And the “AK-based Prestwick Library Screening Results, E. coli (fold increase in extracellular AK activity)” value (E. coli; […])?
Its value is 0.5.

What about the “AK-based Prestwick Library Screening Results, S. aureus (fold increase in extracellular AK activity)” value ([2]; […]) of the same compound?
Its value is 0.4.

What about the “AK-based Prestwick Library Screening Results, K. pneumoniae (fold increase in extracellular AK activity)” value (K. pneumoniae; […]) of the same compound?
The value was 0.5.

What about the “AK-based Prestwick Library Screening Results, P. aeruginosa (fold increase in extracellular AK activity)” value (P. aeruginosa; […]) of the same compound?
Its value is 0.4.

And the “AK-based Prestwick Library Screening Results, E. cloacae (fold increase in extracellular AK activity)” value (E. cloacae; […])?
The value was 0.4.

What about the “AK-based Prestwick Library Screening Results, E. faecium (fold increase in extracellular AK activity)” value (E. faecium; […]) of the same compound?
The value was 0.9.

Which results are given for `Clc1ccc(C(Cn2ccnc2)OCc2c(Cl)cccc2Cl)c(Cl)c1` (stereo not drawn) [Isoconazole]?
fold induction at 50 µM ([1]; 384-well format, cutoff for positive-scoring molecules 3-fold increase, read-out: AK-based Prestwick Library Screening Results, A. baumannii (increase in extracellular AK activity)): 5.6; fold induction at 50 µM (E. coli; [10]): 1.8; fold induction at 50 µM ([2]; 384-well format, cutoff for positive-scoring molecules 3-fold increase, read-out: AK-based Prestwick Library Screening Results, S. aureus (increase in extracellular AK activity)): 5.2; fold induction at 50 µM (K. pneumoniae; 384-well format, cutoff for positive-scoring molecules 3-fold increase, read-out: AK-based Prestwick Library Screening Results, K. pneumoniae (increase in extracellular AK activity)): 1.4; fold induction at 50 µM (P. aeruginosa; 384-well format, cutoff for positive-scoring molecules 3-fold increase, read-out: AK-based Prestwick Library Screening Results, P. aeruginosa (increase in extracellular AK activity)): 1.3; fold induction at 50 µM (E. cloacae; 384-well format, cutoff for positive-scoring molecules 3-fold increase, read-out: AK-based Prestwick Library Screening Results, E. cloacae (increase in extracellular AK activity)): 1.7; fold induction at 50 µM (E. faecium; 384-well format, cutoff for positive-scoring molecules 3-fold increase, read-out: AK-based Prestwick Library Screening Results, E. faecium (increase in extracellular AK activity)): 1.8
